Entries after “also recorded” stand apart in the source; their conditions may differ.
Assays:
[1] = Phase II clinical trial, adverse events; type: in vivo, human
Description: The adverse events reported by patients were registered, and the most frequent one was the rifaximin related vulvovaginal itching and burning.
In Table 23 it is reported the percentage of patients belonging to different treatment groups who reported adverse events both systemic and local, vulvovaginal itching and burning related to rifaximin.

Atopobium = experiment: Vaginal microbiota by quantitative real-time PCR; type: in vivo; settings: for Target DNA/genomic vaginal DNA, Atopobium / Target DNA/genomic or vaginal DNA, Atopobium: average; for Target DNA/genomic or vaginal DNA, Atopobium: visit V4, patients maintaining recovery
Protocol: (§1) During the clinical trial, described in Example 12, samples of vaginal cleansing were collected and the composition of vaginal microbiota was determined by means of the quantitative real-time PCR.
(§2) With the real-time PCR the DNA samples are amplified with gender- and/or species-specific primers whose target is the 16S rRNA bacterial gene or the 16S-23 S rRNA region.
(§3) In particular, specific probes were used for the Lactobacillus gender, for Gardnerella vaginalis, for Atopobium, for Prevotella and for Veillonella, since they represent the main bacterial groups suffering from modifications in case of bacterial vaginosis.
(§4) Table 28 reports the values of real-time PCR relating to bacterial genders and species quantified in vaginal cleansings of women belonging to the different treatment groups, expressed as total target DNA ng/genomic DNA μg, for microbial species tested for each group at the visit V3 if compared to the visit V1.
(§5) The composition of vaginal microbiota was determined by means of the quantitative real-time PCR technique of patients maintaining their recovery at the visit V4, 30-40 days after the end of the therapy, and the DNA samples amplified with gender- and/or species-specific primers were evaluated by means of the real-time PCR technique.
(§6) Table 29 reports the values of real-time PCR relating to target bacterial genders and species quantified in vaginal rinses of women belonging to the different treatment groups, expressed as total target DNA ng/genomic DNA μg, for microbial species tested for each group at the visit V4 when compared to the values observed at the visit V1 of all treated patients.

Veillonella = experiment: Vaginal microbiota by quantitative real-time PCR; type: in vivo; settings: average; for Target DNA/genomic or vaginal DNA, Veillonella: visit V4, patients maintaining recovery
Protocol: as §1, §2, §3, §4, §5, §6

Prevotella = experiment: Vaginal microbiota by quantitative real-time PCR; type: in vivo; settings: for Target DNA/genomic vaginal DNA, Prevotella / Target DNA/genomic or vaginal DNA, Prevotella: average; for Target DNA/genomic or vaginal DNA, Prevotella: visit V4, patients maintaining recovery
Protocol: as §1, §2, §3, §4, §5, §6

Lactobacillus = experiment: Vaginal microbiota by quantitative real-time PCR; type: in vivo; settings: for Target DNA/genomic vaginal DNA, Lactobacillus / Target DNA/genomic or vaginal DNA, Lactobacillus: average; for Target DNA/genomic or vaginal DNA, Lactobacillus: visit V4, patients maintaining recovery; for increase of Lactobacilli concentration: visit V4
Protocol: as §1, §2, §3, §4, §5, §6

Gardnerella vaginalis = experiment: Vaginal microbiota by quantitative real-time PCR; type: in vivo; settings: for Target DNA/genomic vaginal DNA, Gardnerella vaginalis / Target DNA/genomic or vaginal DNA, Gardnerella vaginalis: average; for Target DNA/genomic or vaginal DNA, Gardnerella vaginalis: visit V4, patients maintaining recovery
Protocol: as §1, §2, §3, §4, §5, §6

[2] = Phase I systemic absorption of rifaximin vaginal tablets in healthy volunteers; type: in vivo, human; settings: single 100 mg vaginal tablet, 30 minutes to 24 hours; LLOQ 0.5 ng/ml
Protocol: The samples were analyzed by liquid chromatography equipped with mass spectrometry detector, with a lower limit of quantization (LLOQ) of rifaximin concentration 0.5 ng/ml.

[3] = Group A: 1 tablet 100 mg × 5 days
[4] = Group B: 1 tablet 25 mg × 5 days
[5] = Group C: 1 tablet 100 mg × 2 days
[6] = all groups treated with rifaximin, compared to placebo
[7] = visit V1 (before therapy), Group A: 1 tablet 100 mg × 5 days
[8] = visit V1 (before therapy), Group B: 1 tablet 25 mg × 5 days
[9] = visit V1 (before therapy), Group C: 1 tablet 100 mg × 2 days
[10] = visit V3, Group A: 1 tablet 100 mg × 5 days
[11] = visit V3, Group B: 1 tablet 25 mg × 5 days
[12] = visit V3, Group C: 1 tablet 100 mg × 2 days

CO[C@H]1/C=C/O[C@@]2(C)Oc3c(C)c(O)c4c(O)c(c5c(nc6cc(C)ccn65)c4c3C2=O)NC(=O)/C(C)=C\C=C\[C@H](C)[C@H](O)[C@@H](C)[C@@H](O)[C@@H](C)[C@H](OC(C)=O)[C@@H]1C [Rifaximin]
Patients with adverse events [1, 3]: 35.7%
Patients with vulvovaginal burning [1, 3]: 3.6%
Patients with vulvovaginal itching [1, 3]: 25.0%
Patients with adverse events [1, 4]: 34.6%
Patients with vulvovaginal burning [1, 4]: 19.2%
Patients with vulvovaginal itching [1, 4]: 19.2%
Patients with adverse events [1, 5]: 7.7%
Patients with vulvovaginal burning [1, 5]: 3.8%
Patients with vulvovaginal itching [1, 5]: 3.8%
rifaximin related vulvovaginal candidiasis during treatment ([1]; any of the treated groups): none of the treated groups showed any case of rifaximin-related vulvovaginal candidiasis; also recorded: No rifaximin related vulvovaginal candidiasis
adverse event in the clinical study ([1]; patients treated with 25 mg and 100 mg rifaximin in vaginal tablets): did not show any particular adverse event
change of Atopopium concentration by real-time PCR (Atopobium; [6]): reduction
Target DNA/genomic vaginal DNA, Atopobium (Atopobium; [7]): 93.07 ng/µg
Target DNA/genomic vaginal DNA, Atopobium (Atopobium; [8]): 108.2 ng/µg
Target DNA/genomic vaginal DNA, Atopobium (Atopobium; [9]): 170.4 ng/µg
Target DNA/genomic vaginal DNA, Atopobium (Atopobium; [10]): 61.46 ng/µg
Target DNA/genomic vaginal DNA, Atopobium (Atopobium; [11]): 48.8 ng/µg
Target DNA/genomic vaginal DNA, Atopobium (Atopobium; [12]): 59.99 ng/µg
Target DNA/genomic or vaginal DNA, Atopobium (Atopobium; [3]): 5.348 ng/µg
Target DNA/genomic or vaginal DNA, Atopobium (Atopobium; [4]): 28.25 ng/µg
Target DNA/genomic or vaginal DNA, Atopobium (Atopobium; [5]): 139.9 ng/µg
Target DNA/genomic vaginal DNA, Veillonella (Veillonella; [7]): 0.04128 ng/µg
Target DNA/genomic vaginal DNA, Veillonella (Veillonella; [8]): 0.03492 ng/µg
Target DNA/genomic vaginal DNA, Veillonella (Veillonella; [9]): 0.2214 ng/µg
Target DNA/genomic vaginal DNA, Veillonella (Veillonella; [10]): 0.007807 ng/µg
Target DNA/genomic vaginal DNA, Veillonella (Veillonella; [11]): 0.01761 ng/µg
Target DNA/genomic vaginal DNA, Veillonella (Veillonella; [12]): 0.005642 ng/µg
Target DNA/genomic or vaginal DNA, Veillonella (Veillonella; [3]): 0 ng/µg
Target DNA/genomic or vaginal DNA, Veillonella (Veillonella; [4]): 0 ng/µg
Target DNA/genomic or vaginal DNA, Veillonella (Veillonella; [5]): 0.2748 ng/µg
change of Prevotella concentration by real-time PCR (Prevotella; [6]): reduction
Target DNA/genomic vaginal DNA, Prevotella (Prevotella; [7]): 18.8 ng/µg
Target DNA/genomic vaginal DNA, Prevotella (Prevotella; [8]): 18.47 ng/µg
Target DNA/genomic vaginal DNA, Prevotella (Prevotella; [9]): 17.91 ng/µg
Target DNA/genomic vaginal DNA, Prevotella (Prevotella; [10]): 12.2 ng/µg
Target DNA/genomic vaginal DNA, Prevotella (Prevotella; [11]): 3.712 ng/µg
Target DNA/genomic vaginal DNA, Prevotella (Prevotella; [12]): 7.248 ng/µg
Target DNA/genomic or vaginal DNA, Prevotella (Prevotella; [3]): 0.04296 ng/µg
Target DNA/genomic or vaginal DNA, Prevotella (Prevotella; [4]): 2.345 ng/µg
Target DNA/genomic or vaginal DNA, Prevotella (Prevotella; [5]): 54 ng/µg
change of Lactobacilli by real-time PCR (Lactobacillus; all groups treated with rifaximin): Lactobacilli increase
Target DNA/genomic vaginal DNA, Lactobacillus (Lactobacillus; [7]): 16.83 ng/µg
Target DNA/genomic vaginal DNA, Lactobacillus (Lactobacillus; [8]): 10.06 ng/µg
Target DNA/genomic vaginal DNA, Lactobacillus (Lactobacillus; [9]): 12.66 ng/µg
Target DNA/genomic vaginal DNA, Lactobacillus (Lactobacillus; [10]): 20.09 ng/µg
Target DNA/genomic vaginal DNA, Lactobacillus (Lactobacillus; [11]): 33.78 ng/µg
Target DNA/genomic vaginal DNA, Lactobacillus (Lactobacillus; [12]): 25.36 ng/µg
Target DNA/genomic or vaginal DNA, Lactobacillus (Lactobacillus; [3]): 21.3 ng/µg
Target DNA/genomic or vaginal DNA, Lactobacillus (Lactobacillus; [4]): 39.57 ng/µg
Target DNA/genomic or vaginal DNA, Lactobacillus (Lactobacillus; [5]): 8.959 ng/µg
increase of Lactobacilli concentration (Lactobacillus; group A: tablet 100 mg rifaximin for five days): twentyfold
increase of Lactobacilli concentration (Lactobacillus; group B: tablet 25 mg rifaximin for five days): fortyfold
increase of Lactobacilli concentration (Lactobacillus; group C: tablet 100 mg rifaximin for two days): eightfold
change of Gardnerella vaginalis concentration by real-time PCR (Gardnerella vaginalis; [6]): reduction
Target DNA/genomic vaginal DNA, Gardnerella vaginalis (Gardnerella vaginalis; [7]): 34.92 ng/µg
Target DNA/genomic vaginal DNA, Gardnerella vaginalis (Gardnerella vaginalis; [8]): 119.4 ng/µg
Target DNA/genomic vaginal DNA, Gardnerella vaginalis (Gardnerella vaginalis; [9]): 66.74 ng/µg
Target DNA/genomic vaginal DNA, Gardnerella vaginalis (Gardnerella vaginalis; [10]): 23.56 ng/µg
Target DNA/genomic vaginal DNA, Gardnerella vaginalis (Gardnerella vaginalis; [11]): 66.26 ng/µg
Target DNA/genomic vaginal DNA, Gardnerella vaginalis (Gardnerella vaginalis; [12]): 29.44 ng/µg
Target DNA/genomic or vaginal DNA, Gardnerella vaginalis (Gardnerella vaginalis; [3]): 3.067 ng/µg
Target DNA/genomic or vaginal DNA, Gardnerella vaginalis (Gardnerella vaginalis; [4]): 17.57 ng/µg
Target DNA/genomic or vaginal DNA, Gardnerella vaginalis (Gardnerella vaginalis; [5]): 75.09 ng/µg
rifaximin plasma concentrations [2]: under the analytical detection limit

— patent US10258610B2, “Pharmaceutical compositions comprising rifaximin, processes for their preparation and their use in the treatment of vaginal infections” (ALFASIGMA S.P.A., priority 2011, dated 2019)
